Measured values reported in patent US20090234017A1, “TREATING SKIN DISORDERS” (priority 2005, published 2009).

Test system: psoriasis
Assay: Case report: psoriasis in a patient treated with midodrine for hypotension

For `COc1ccc(OC)c(C(O)CNC(=O)CN)c1` (centres unmarked) [midodrine], the “improvement of the patient's psoriasis” value (person with moderate psoriasis, midodrine five mg three times a day for three months) was ≥ 90% and the “psoriasis after discontinuing use of midodrine” value (same patient, after discontinued use of midodrine) was “psoriasis returned”.
